Data reported in publication PMC10096842, “Identification of Flavone Derivative Displaying a 4′-Aminophenoxy Moiety as Potential Selective Anticancer Agent in NSCLC Tumor Cells” (Molecules, 2023).
Values belong to the molecule of their own block, whether it stands above or below them.

Legend:
[1] = system: human dermal fibroblasts (HDF); experiment: MTT cell viability assay, HDF; assay type: cell-based; conditions: Fibroblast, 72 h
Procedure: (§1) The human non-small cell lung cancer (NSCLC) and Human Dermal Fibroblasts (HDF) cell lines were all obtained from the American Type Culture Collection (ATCC). The H1975 (CRL-5908™) cell line was grown in RPMI 1640 medium (ECB2000) while the A549 (CCL-185™) and HDF were grown in complete DMEM medium (ECM0095) All cultures were supplemented with 10% fetal bovine serum (FBS), 2 mM L-glutamine, 100 U/mL penicillin, and 100 µg/mL streptomycin,. All cell lines were routinely maintained in 75 cm^2 flasks in a cell incubator at 37 °C, 5% CO2, and 95% relative humidity. The cell cultures were detached by trypsinization with 0.5% trypsin in PBS containing 0.025% EDTA. All cell culture reagents were supplied by Euroclone (Milan, Italy).
(§2) The number of metabolically active cells, and thus cell viability, was assessed by a 3-(4,5-dimethylthiazol-2-yl)-2,5-diphenyltetrazolium bromide (MTT) assay as previously described. The NSCLC cell lines (A549 and H1975) and HDF were seeded in 96-well plates to reach 50% confluence at 24 h; then, the medium was removed and replaced with 0.2 mL of fresh culture medium containing increasing compound concentrations (0–160 µM). After 72 h, the medium from each well was removed and replaced with fresh medium supplemented with MTT at a final concentration of 200 µg/mL. After incubation for 4 h at 37 °C, 0.2 mL of DMSO was added to each well followed by multiwell shaking for 4 min. The absorbance was read on a multiwell scanning microplate reader (BioTek Synergy HT MicroPlate Reader Spectrophotometer, BioTek Instruments Inc., Winooski, VT, USA) at 570 nm using the extraction buffer as a blank. The optical density in the control group (untreated cells) was considered as 100% viability. The relative cell viability (%) was calculated as (OD570 of treated samples/OD570 of untreated samples) × 100. Dose-dependent curves were therefore generated for the cytotoxic studies. The 50% inhibiting concentration (IC50) was determined by non-linear regression analysis with a three-parameter fit by utilizing SigmaPlot 12.0 Software, USA, Systat Software, Inc. SigmaPlot for Windows. Each experiment was performed at least five times in triplicate.

[2] = LogP determination (1-octanol/PBS partition, UV-vis); assay type: physicochemical; conditions: 1-octanol/PBS, pH 7.4, 1-octanol/PBS pH 7.4; read-out: Experimental LogP
Procedure: LogP was determined as previously described. Briefly, solutions of each APF were prepared in 1-octanol, and UV-vis spectra were acquired to determine the λmax. After having placed 2.5 mL of each solution in 10 mL conical centrifuge tubes, PBS was added (2.5 mL, pH 7.4) and the biphasic system was mixed using a vortex mixer (VELP Scientifica, Usmate Velate MB, Italy) followed by centrifugation (2000× g, 5 min). Then, the octanol phase absorption was measured at λmax. The partition coefficient Ko/w was calculated according to the following equation:Ko/w = [APF]oct/[APF]PBS = […] where Ai is the initial measured absorbance in octanol, pre-extraction, and Af is the final measured absorbance in octanol, post-extraction.

H1975 NSCLC cells = experiment: MTT cell viability assay, H1975; assay type: cell-based, human; conditions: for IC50: H1975, 72 h, MTT; for SI (Selectivity Index): IC50 HDF / IC50 H1975
Procedure: as §1, §2

A549 NSCLC cells = experiment: MTT cell viability assay, A549; assay type: cell-based, human; conditions: for IC50: A549, 72 h, MTT; for SI (Selectivity Index): IC50 HDF / IC50 A549
Procedure: as §1, §2

advanced NSCLC = system: advanced NSCLC; design: method as in PMID 12177774, PMID 17912235, PMID 36674503; conditions: treatment of advanced NSCLC; cited from earlier work
A549 cells [3] = experiment: Cell cycle analysis (PI, flow cytometry), A549; assay type: cell-based, human; conditions: 24 h
Procedure: (§3) Cell cycle analyses were performed by using a Guava easyCyte flow cytometer (Merk-Millipore, MA, USA) and the DNA content was determined by propidium iodide (PI) method as previously described. Briefly, A549, H1975, and HDF were treated with APF-1 at 1.5 and 3 µM concentrations for 24 h. Cells were harvested, washed twice with cold PBS, and fixed with 70% ice-cold ethanol and kept at […] for 2 h. The fixed cells were centrifugated at 4 °C and suspended in a master mix solution containing PBS, PI (40 µg/mL), and RNase (100 µg/mL) for 30 min at 37 °C in the dark. Samples were run through the Guava easyCyte flow cytometer set to internal cell cycle analysis protocol and 5000 cells per sample were measured. The percentage of cell cycle phases (G0/G1, S, and G2/M) was quantified using MultiCycle AV Cell Cycle in FCS Express 7 software (DeNovo Software, Pasadena, CA, USA). The experiment was performed three times in triplicate.

[4] = system: p21^waf1/cip1 protein level in H1975 cells; experiment: Western blot of p21 expression, H1975; assay type: cell-based, human; conditions: 24 h
Procedure: (§4) Analysis of cell extracts (20 µg total proteins) was performed using SDS-PAGE 12% (Bio-Rad Laboratories, Hercules, CA, USA). Electrophoresis was carried out under reducing conditions, where uniformly negatively charged proteins move according to their mass. The proteins were then transferred to a PVDF membrane using the Trans-Blot Turbo instrument (Bio-Rad Laboratories, USA), after which the membrane was blocked with Every Blot Blocking Buffer (Bio-Rad Laboratories, USA). P21 protein levels were analyzed by Western blotting using a specific rabbit monoclonal primary antibody that specifically recognizes p21 protein (ab109199, Cambridge, MA, USA), and a secondary antibody anti-rabbit HRP (TA130023, OriGene Technologies, Rockville, MD 20850, USA) and detected by chemiluminescence using the Chemidoc device (Bio-Rad Laboratories, USA). […] GADPH protein levels were analyzed by Western blotting using a specific rabbit monoclonal primary antibody that specifically recognizes this protein (ARC0205, catalog number MA535235, Thermo Scientific, Waltham, MA, USA) and secondary antibody anti-rabbit HRP (TA130023, OriGene Technologies, Rockville, MD 20850, USA), also in this case detected by chemiluminescence with the Chemidoc instrument (Bio-Rad Laboratories, USA).

[5] = system: p21 expression in HDF cell line; experiment: Western blot of p21 expression, HDF; assay type: cell-based, human; conditions: APF-1 treatment, 24 h
Procedure: as §4

[6] = Annexin V-FITC/PI apoptosis flow cytometry, HDF; assay type: cell-based, human; conditions: human, HDF cells, HDF, 24 h, read-out: live/viable (Annexin V−PI−) cells
Procedure: (§5) Apoptosis was analyzed by flow cytometry using an Annexin V-FITC apoptosis detection kit (Biolegend, San Diego, CA, USA), according to the manufacturer’s instructions. A549, H1975, and HDF cells were treated with […] concentrations of APF-1 (1.5 and 3 µM). […] Briefly, control and treated cells were trypsinized, washed twice with ice-cold PBS, and resuspended in 1X Annexin binding buffer at a final concentration of 1.0 × 10^6 cell/mL. A total of 5 µL Annexin V-FITC and 10 µL Propidium Iodide (PI) were added to the cell suspension and the mixture was incubated for 15 min at rt in the dark. Samples were analyzed using the Guava EasyCyte flow cytometer (Merk-Millipore, Louis Missouri, USA). A total of 5000 events were acquired for each sample. Annexin V-FITC was detected as a green fluorescence (λex = 488 nm; λem = 516 nm) and PI was detected as a red fluorescence (λex = 535 nm; λem = 617 nm). Early apoptosis is defined by Annexin V+/PI− staining, late apoptosis is defined by Annexin V+/PI+ staining, and necrosis is defined by Annexin V−/PI+ staining.

HDF cells [7] = experiment: Annexin V-FITC/PI apoptosis flow cytometry, HDF; assay type: cell-based, human
Procedure: as §5

A549 cells [8] = experiment: Annexin V-FITC/PI apoptosis flow cytometry, A549; assay type: cell-based, human
Procedure: as §5

[9] = system: p21^waf1/cip1 protein level in A549 cells; experiment: Western blot of p21 expression, A549; assay type: cell-based, human; conditions: A549, higher APF-1 concentration (3 µM), 24 h
Procedure: as §4

H1975 cells [10] = experiment: Cell cycle analysis (PI, flow cytometry), H1975; assay type: cell-based, human; conditions: H1975, 3 µM, 24 h
Procedure: as §3

H1975 cells [11] = experiment: Annexin V-FITC/PI apoptosis flow cytometry, H1975; assay type: cell-based, human
Procedure: as §5

HDF cells [12] = experiment: Cell cycle analysis (PI, flow cytometry), HDF; assay type: cell-based, human; conditions: 1.5 and 3 µM, 24 h
Procedure: as §3

- logP [2]: 3.3 ± 0.2
- IC50 (H1975 NSCLC cells; Homo sapiens, NCI-H1975, 72 h): 40 ± 4 µM
- IC50 (A549 NSCLC cells; Homo sapiens): 33 ± 2 µM
Compound: Nc1ccc(Oc2ccc3c(=O)cc(-c4cccc(Oc5ccccc5)c4)oc3c2)cc1 [APF-3, 7-(4-aminophenoxy)-2-(3′-phenoxy)phenyl-4H-chromen-4-one]
- IC50 [1]: 80 ± 3 µM
- SI (Selectivity Index) (H1975 NSCLC cells): 2
- SI (Selectivity Index) (A549 NSCLC cells): 2

- IC50 (H1975 NSCLC cells; Homo sapiens, NCI-H1975, 72 h): 2.5 ± 0.4 µM
- IC50 (A549 NSCLC cells; Homo sapiens): 0.8 ± 0.2 µM
Compound: COc1cccc2c1C(=O)c1c(O)c3c(c(O)c1C2=O)C[C@@](O)(C(=O)CO)C[C@@H]3O[C@H]1C[C@H](N)[C@H](O)[C@H](C)O1 [Doxorubicin, reference compound]
- overall response rate (advanced NSCLC): 30–50%
- IC50 [1]: 14 ± 4 µM
- SI (Selectivity Index) (H1975 NSCLC cells): 6
- SI (Selectivity Index) (A549 NSCLC cells): 18

- logP [2]: 3.2 ± 0.1
- IC50 (H1975 NSCLC cells): 2.3 ± 0.2 µM
- IC50 (H1975 NSCLC cells; Homo sapiens, NCI-H1975, 72 h): 2 µM
- IC50 (A549 NSCLC cells): 4.2 ± 0.4 µM
- IC50 (A549 NSCLC cells; Homo sapiens): 4 µM
Compound: Nc1ccc(Oc2ccc3oc(-c4cccc(Oc5ccccc5)c4)cc(=O)c3c2)cc1 [APF-1]
- increase in G2/M phase compared to the untreated cells (A549 cells [3]; A549, 1.5 µM): 2.8 fold
- cells in G2/M phase (A549 cells [3]; A549, 3 µM): 75%
- IC50 [1]: 62 ± 6 µM
- increase in p21 level with respect to untreated cells ([4]; H1975, 1.5 µM): 3 fold
- increase in p21 level with respect to untreated cells ([4]; H1975, 3 µM): 3 fold
- change in p21 expression [5]: did not observe any significant change
- viability at 24 h, 1.5 µM ([6]; 1.5 µM): 92%
- viability at 24 h, 3 µM ([6]; 3 µM): 86%
- effect on the number of late apoptotic cells (HDF cells [7]; HDF, 1.5 and 3 µM, 24 h): did not detect any effect
- increase in early apoptosis (HDF cells [7]; HDF, highest APF-1 concentration (3 µM), 24 h): 4.7 fold
- induction of apoptosis (sum of early and late apoptosis) compared with cancer cells (HDF cells [7]; fibroblasts, Figure 3D): lower
- increase in early apoptosis with respect to untreated cells (A549 cells [8]; A549, 3 µM, 24 h): 2 fold
- viability at 1.5 µM (A549 cells [8]; Homo sapiens, A549, 24 h, A549, 1.5 µM, 24 h, read-out: live/viable (Annexin V−PI−) cells): 86%
- viability at 3 µM (A549 cells [8]; Homo sapiens, A549, 24 h, A549, 3 µM, 24 h, read-out: live/viable (Annexin V−PI−) cells): 73%
- induction of apoptosis (sum of early and late apoptosis) with respect to untreated cells (A549 cells [8]; cancer cells (A549), Figure 3D): about 4 times
- SI increase compared with doxorubicin (H1975 NSCLC cells; H1975): ~ 4.5 fold
- increase in p21^waf1/cip1 expression with respect to untreated cells [9]: 1.5 fold
- cells in G0/G1 phase (H1975 cells [10]): 24%
- cells in G2/M phase (H1975 cells [10]): 70%
- cells in S phase (H1975 cells [10]): 5.6%
- increase in G2/M phase population compared to untreated cells (H1975 cells [10]): 2 fold
- SI (Selectivity Index) (A549 NSCLC cells): 16
- early apoptotic (Annexin V+PI−) cells (H1975 cells [11]; H1975, 1.5 µM, 24 h): 16%
- late apoptotic (Annexin V+PI+) cells (H1975 cells [11]; H1975, 1.5 µM, 24 h): 11%
- increase of early apoptosis compared to untreated cells (H1975 cells [11]; H1975, 3 µM, 24 h): 2.6 fold
- increase of late apoptosis compared to untreated cells (H1975 cells [11]; H1975, 3 µM, 24 h): 6.5 fold
- viability at 1.5 µM (H1975 cells [11]; Homo sapiens, NCI-H1975, 24 h, H1975, 1.5 µM, 24 h, read-out: live/viable (Annexin V−PI−) cells): 70.9%
- viability at 3 µM (H1975 cells [11]; Homo sapiens, NCI-H1975, 24 h, H1975, 3 µM, 24 h, read-out: live/viable (Annexin V−PI−) cells): 46%
- induction of apoptosis (sum of early and late apoptosis) with respect to untreated cells (H1975 cells [11]; cancer cells (H1975), Figure 3D): about 4 times
- effect on cell cycle profile (HDF cells [12]): not affected
